Reference: patent publication US8551721B2, “Bioluminescent detection of cyanohydroxy benzothiazole compounds” (Promega Corporation, priority 2008, dated 2013)

How the values were obtained:
Format in all cases: biochemical
UGT 1A1 = target: T1, UGT 1A1 (Homo sapiens, UniProt P22309); experiment: Assay variability (Z') with UGT 1A1 Supersomes and compound 3138; conditions: 0.2 mg/mL Supersomes, 30 μM compound 3138, plus or minus 5 mM UDPGA, 12 samples each, 120 mM at 37° C.
T1 construct: purchased BD Gentest; host or cells: insect cells (microsomes)
T1 sequence (P22309 26-533): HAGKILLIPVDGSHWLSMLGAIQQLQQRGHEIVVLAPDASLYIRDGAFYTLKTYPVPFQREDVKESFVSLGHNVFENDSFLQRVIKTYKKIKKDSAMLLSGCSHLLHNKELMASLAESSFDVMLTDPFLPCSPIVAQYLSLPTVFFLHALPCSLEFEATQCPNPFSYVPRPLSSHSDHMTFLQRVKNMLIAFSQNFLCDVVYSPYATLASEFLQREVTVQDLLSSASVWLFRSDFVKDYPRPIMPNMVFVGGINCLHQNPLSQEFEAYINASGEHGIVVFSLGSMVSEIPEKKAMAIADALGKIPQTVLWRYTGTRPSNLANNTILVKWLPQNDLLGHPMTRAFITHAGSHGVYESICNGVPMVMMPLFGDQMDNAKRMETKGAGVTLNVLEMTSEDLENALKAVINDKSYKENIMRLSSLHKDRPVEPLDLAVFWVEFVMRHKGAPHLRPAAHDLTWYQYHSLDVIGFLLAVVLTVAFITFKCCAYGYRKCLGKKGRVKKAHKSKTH
Description: (§1) Assay variability was determined using the activity data and standard deviations of 12 separate minus UDPGA and plus UDPGA samples. All reactions contained 50 mM TES, pH 7.5, 8 mM MgCl2, 25 μg/mL alamethicin, 0.2 mg/mL UGT 1A1 or 2B7 Supersomes™, and 30 μM compound 3138, plus or minus 5 mM UDPGA. After […] at 37° C., 40 μl, of LDR plus 20 mM D-cysteine was added to each 40 μl, reaction and mixed. After 20 minutes at room temperature, RLU were read on a luminometer.
(§2) Z′ values were calculated using the equation outlined below.
(§3) Robust assay systems typically display Z′ values of 0.5 or higher. The calculated Z′ value for UGT 1A1 was 0.83. The calculated Z′ value for UGT 2B7 under the same conditions was 0.67.

UGT 2B7 = target: T2, UGT 2B7 (Homo sapiens, UniProt P16662); experiment: Assay variability (Z') with UGT 2B7 Supersomes and compound 3138; conditions: 0.2 mg/mL Supersomes, 30 μM compound 3138, plus or minus 5 mM UDPGA, 12 samples each, 120 mM at 37° C.
T2 construct: purchased BD Gentest; host or cells: insect cells (microsomes)
T2 sequence (P16662 24-529): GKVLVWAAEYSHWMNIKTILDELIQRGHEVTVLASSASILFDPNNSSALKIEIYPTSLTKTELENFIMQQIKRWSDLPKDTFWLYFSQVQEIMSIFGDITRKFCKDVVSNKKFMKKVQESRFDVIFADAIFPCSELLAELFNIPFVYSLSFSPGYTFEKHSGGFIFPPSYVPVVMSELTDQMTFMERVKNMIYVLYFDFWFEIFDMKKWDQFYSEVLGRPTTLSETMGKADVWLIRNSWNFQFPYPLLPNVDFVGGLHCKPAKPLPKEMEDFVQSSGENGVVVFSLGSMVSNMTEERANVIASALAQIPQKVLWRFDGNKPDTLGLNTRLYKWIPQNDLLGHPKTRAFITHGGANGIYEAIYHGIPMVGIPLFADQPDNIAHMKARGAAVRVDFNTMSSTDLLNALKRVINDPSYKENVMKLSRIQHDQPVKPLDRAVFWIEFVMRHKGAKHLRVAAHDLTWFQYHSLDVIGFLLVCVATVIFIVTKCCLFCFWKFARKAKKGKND
Description: as §1, §2, §3

[1] = test system: endogenously expressed UGT isozymes in mammalian microsomes; experiment: Utilization of compounds by mammalian microsomes; conditions: 15 minutes at 37° C., 0.1 mg/mL mammalian microsomes or 0.2 mg/mL Supersomes, 50 μM compound
Description: The invention includes a method of determining activity of the uridine 5′-diphospho-glucuronosyltransferase (UDP-glucuronosyltransferase, or UGT) family enzymes in vitro. […] Following the UGT enzyme reaction, an equal volume of P450-Glo Luciferin Detection Reagent (Promega) containing 15-30 mM D-cysteine-HCl.H2O (Sigma) was added and the plate was mixed and incubated at room temperature, typically for 20-30 minutes. P450-Glo Luciferin Detection Reagent can be prepared by dissolving a vial of Promega Luciferin Detection Reagent (Promega Part #V859B) with a vial of Promega P450-Glo Buffer (Promega Part #V865B).
During this incubation, the cysteine reacts with the cyanobenzathiozole substrate to yield a D-luciferin derivative. […] Therefore, activity of the UGT enzyme can be measured by analyzing the difference (lower or no output) in relative light units (RLU) of a sample in which glucuronidation occurs compared to a sample that was run under the same conditions with no added UDPGA cofactor.
Tissue microsomes were obtained from Xenotech LLC or BD Gentest.

With Cc1cc(O)cc2sc(C#N)nc12 [compound 3138] as the compound, how does the “calculated Z′ value for UGT 1A1” value (UGT 1A1) read?
Its value is 0.83.

What about the “calculated Z′ value for UGT 2B7” value (UGT 2B7) of the same compound?
Its value is 0.67.

And the “utilization of compound 3138 by tissue microsomes compared with control 1A1 Supersomes” value [1]?
The value was “All tissues tested utilized much more compound 3138 than the control 1A1 Supersomes”.
